Activity calls are given as the source filed them. No cut-off for these calls is given here.
What was measured:
[1] = organism: Rattus norvegicus; experiment: Antagonistic activity as a measure of bombesin-induced phosphoinositide turnover in rat pituitary GH3 cells; 1.5-3 uM; type: functional, cell-based
[2] = organism: Rattus norvegicus; experiment: Agonistic activity up to a conc 30 uM measured as elevation of inositol phosphate production in absence of bombesin in rat pituitary GH3 cells; NA is no measurable agonist activity; type: functional, cell-based
[3] = biological target: Gastrin-releasing peptide receptor (Homo sapiens) (UniProt P30550); experiment: Compound up to a conc of 32 uM was tested for displacement of radiolabeled GRP from its receptors on bombesin-responsive human SCLC cell line N592; […]
Chain of Gastrin-releasing peptide receptor (Homo sapiens) (P30550 whole entry, looked up): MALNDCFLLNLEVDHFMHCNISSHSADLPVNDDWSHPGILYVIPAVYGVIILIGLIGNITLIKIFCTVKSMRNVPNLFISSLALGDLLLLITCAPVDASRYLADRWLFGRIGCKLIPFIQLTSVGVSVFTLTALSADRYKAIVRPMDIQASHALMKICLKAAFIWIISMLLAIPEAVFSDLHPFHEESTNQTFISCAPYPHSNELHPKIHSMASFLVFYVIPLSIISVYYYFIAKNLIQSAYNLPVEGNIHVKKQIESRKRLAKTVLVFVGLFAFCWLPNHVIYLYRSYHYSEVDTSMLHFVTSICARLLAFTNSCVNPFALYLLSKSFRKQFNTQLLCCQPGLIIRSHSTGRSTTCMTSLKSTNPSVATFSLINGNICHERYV

[4] = biological target: Gastrin-releasing peptide receptor (Rattus norvegicus, UniProt P52500); experiment: Compound was evaluated for displacement of radiolabeled [I-125]GRP from rat brain receptor; 1.5-3 uM
Chain of Gastrin-releasing peptide receptor (P52500 whole entry): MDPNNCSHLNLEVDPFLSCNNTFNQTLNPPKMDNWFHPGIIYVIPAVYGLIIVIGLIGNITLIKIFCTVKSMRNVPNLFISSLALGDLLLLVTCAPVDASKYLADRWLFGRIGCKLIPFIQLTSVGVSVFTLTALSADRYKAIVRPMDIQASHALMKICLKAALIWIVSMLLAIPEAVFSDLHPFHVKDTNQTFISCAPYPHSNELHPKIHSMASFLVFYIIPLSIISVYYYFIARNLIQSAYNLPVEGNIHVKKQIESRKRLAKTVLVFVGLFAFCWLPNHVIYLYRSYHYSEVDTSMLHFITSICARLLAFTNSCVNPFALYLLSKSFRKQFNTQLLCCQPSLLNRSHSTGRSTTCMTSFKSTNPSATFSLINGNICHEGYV

| Structure (SMILES) | IC50 [1] | Activity [2] | Activity [3] | IC50 [4] |
| --- | --- | --- | --- | --- |
| CCN1C(=O)/C(=C/c2cc(C(C)(C)C)c(O)c(C(C)(C)C)c2)c2cc(OCc3ccccc3C(=O)O)ccc21 | 1500 nM | inactive | inactive | 1500 nM |
| O=C1NC(=O)C2(N1)C(=O)N(Cc1ccc(Cl)c(Cl)c1)c1ncc(Br)cc12 (stereo not drawn) | 1500 nM | inactive | inactive | 1500 nM |

From ChEMBL document CHEMBL1126408, “CP-70,030 and CP-75,998: The first non-peptide antagonists of bombesin and gastrin releasing peptide” (Bioorg Med Chem Lett, 1992)
